We go through 9 compounds from US20100035926A1, “PYRAZOLE DERIVATIVES AS NON-STEROIDAL GLUCOCORTICOID RECEPTOR LIGANDS” (priority 2006, published 2010).

In one experiment the target is T1, Progesterone Receptor (Homo sapiens, UniProt P06401).
T1 construct: expressed in transfected cells; host or cells: CV-1 cells transduced with PRb-BacMam and MMTV-BacMam
T1 sequence (P06401 1-933): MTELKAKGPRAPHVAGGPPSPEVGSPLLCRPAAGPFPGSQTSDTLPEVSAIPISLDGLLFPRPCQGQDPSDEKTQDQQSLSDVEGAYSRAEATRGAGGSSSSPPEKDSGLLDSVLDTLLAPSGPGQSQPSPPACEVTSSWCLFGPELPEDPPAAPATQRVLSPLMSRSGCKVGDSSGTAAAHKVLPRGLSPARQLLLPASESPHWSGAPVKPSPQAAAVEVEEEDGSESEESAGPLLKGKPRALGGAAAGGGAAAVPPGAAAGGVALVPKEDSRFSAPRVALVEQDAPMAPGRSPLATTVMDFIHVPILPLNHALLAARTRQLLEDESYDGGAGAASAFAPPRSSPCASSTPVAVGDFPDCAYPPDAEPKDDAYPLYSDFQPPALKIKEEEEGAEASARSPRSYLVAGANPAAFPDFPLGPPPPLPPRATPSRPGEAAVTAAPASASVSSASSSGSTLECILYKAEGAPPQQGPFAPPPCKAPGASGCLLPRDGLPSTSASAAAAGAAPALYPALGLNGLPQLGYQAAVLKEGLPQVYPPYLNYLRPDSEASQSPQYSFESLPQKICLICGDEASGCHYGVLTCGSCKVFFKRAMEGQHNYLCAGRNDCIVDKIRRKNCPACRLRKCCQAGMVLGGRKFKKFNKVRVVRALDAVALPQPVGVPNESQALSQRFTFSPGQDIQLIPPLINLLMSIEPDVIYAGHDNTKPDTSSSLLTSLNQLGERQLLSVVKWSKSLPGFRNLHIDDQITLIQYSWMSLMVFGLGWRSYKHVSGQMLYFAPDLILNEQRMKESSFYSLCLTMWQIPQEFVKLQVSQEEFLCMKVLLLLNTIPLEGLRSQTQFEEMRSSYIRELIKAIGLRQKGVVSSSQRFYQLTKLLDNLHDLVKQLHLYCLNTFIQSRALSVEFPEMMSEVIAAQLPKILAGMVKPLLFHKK
As to the kind of experiment: Assay for Progesterone Receptor Agonist Activity (CV-1 cells, PRb-BacMam, MMTV-BacMam). The conditions noted are these: at least once in this assay, read-out: progesterone receptor agonist pEC50 (converted). The format is cell-based. On the procedure:
A T225 flask of CV-1 cells at a density of 80% confluency was washed with PBS, detached from the flask using 0.25% trypsin and counted using a Sysmex KX-21N. Cells were diluted in DMEM containing 10% Hyclone, 2 mM […] and 1% Pen/Strep at 140 cells/μl and transduced with 10% PRb-BacMam and 10% MMTV-BacMam. […] of suspension cells were dispensed to each well of white Nunc 384-well plates, containing compounds at the required concentration. After 24 hr 10 μl of Steadylite were added to each well of the plates. Plates were incubated in the dark for 10 min before reading them on a Viewlux reader. Dose response curves were constructed from which pEC50 values were estimated.

Experiment [1] has as its target T2, GR (Homo sapiens, UniProt P04150).
T2 construct: endogenous in cells; host or cells: A549 (human lung carcinoma, ECACC No. 86012804), stably transfected with reporter plasmids only
T2 sequence (P04150 1-777): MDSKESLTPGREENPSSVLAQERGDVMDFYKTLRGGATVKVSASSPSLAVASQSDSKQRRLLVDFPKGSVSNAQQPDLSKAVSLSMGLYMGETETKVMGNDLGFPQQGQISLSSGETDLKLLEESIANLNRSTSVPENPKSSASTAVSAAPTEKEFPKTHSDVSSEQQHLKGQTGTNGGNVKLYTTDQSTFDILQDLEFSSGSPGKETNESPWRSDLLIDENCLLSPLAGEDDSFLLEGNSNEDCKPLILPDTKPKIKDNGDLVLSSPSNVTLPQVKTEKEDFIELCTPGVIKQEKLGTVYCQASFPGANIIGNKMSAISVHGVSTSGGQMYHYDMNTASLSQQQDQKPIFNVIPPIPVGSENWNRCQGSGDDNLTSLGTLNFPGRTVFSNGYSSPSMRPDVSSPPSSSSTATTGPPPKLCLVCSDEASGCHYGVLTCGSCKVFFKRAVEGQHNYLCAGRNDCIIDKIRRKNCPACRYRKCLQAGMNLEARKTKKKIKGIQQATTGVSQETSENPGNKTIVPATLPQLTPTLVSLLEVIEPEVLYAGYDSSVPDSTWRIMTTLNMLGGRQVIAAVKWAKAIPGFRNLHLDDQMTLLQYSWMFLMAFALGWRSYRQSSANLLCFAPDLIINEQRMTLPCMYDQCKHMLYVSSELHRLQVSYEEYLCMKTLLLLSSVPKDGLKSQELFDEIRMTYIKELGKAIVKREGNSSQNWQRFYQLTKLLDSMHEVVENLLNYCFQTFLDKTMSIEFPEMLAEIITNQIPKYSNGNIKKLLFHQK
Nature of the experiment: GR Functional Assay - NFκB Assay (A549 SPAP cells, TNFα stimulated). The format is cell-based. The following applies: for Emax: agonists, read-out: average maximum asymptote in the NFkB assay. The procedure, abridged:
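Stably transfected A549 SPAP cells at 0.16×10^6/ml in DMEM with 10% FCS were added to compound and stimulated with TNFα to drive NFκB-dependent SPAP expression. After 1 hr equilibration at room temperature, SPAP was read colorimetrically with pNPP in diethanolamine buffer, pH 9.8.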

The target of experiment [2] is T2, GR. Nature of the experiment: GR Agonist Assay - MMTV Assay (A549 MMTV cells, renilla luciferase reporter). The format is cell-based. The following applies: 6 h, agonists, read-out: average maximum asymptote in the MMTV agonist assay. The essentials:
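Stably transfected A549 MMTV cells carry a GR-driven luciferase reporter. Cells at 0.1×10^6/ml in DMEM with 10% FCS and 25 mM HEPES were added to wells containing compound. After detection reagent, plates were held about 15 mins at room temperature and luminescence was read.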

Another experiment has as its target T3, glucocorticoid receptor (Homo sapiens, UniProt P04150).
T3 construct: a partially purified full length glucocorticoid receptor
T3 sequence (P04150 1-777): T2 sequence (P04150 1-777)
Nature of the experiment: Glucocorticoid Receptor Binding Assay (fluorescence polarisation, displacement of Alexa 555 labelled dexamethasone derivative). The following applies: at least once in this assay; read-out: glucocorticoid binding pIC50 (converted). The procedure, abridged:
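Partially purified full-length GR incubated with test compound and fluorescent dexamethasone plus GR-stabilising buffer components, 2 hr at room temperature in the dark. Binding scored as displacement of tracer, read as decrease in fluorescence polarisation.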

The mark [3] stands for this setting: at least once in the NFkB assay, A549 SPAP cells, read-out: pIC50 in the NFkB assay (converted).
Where [4] appears, read: at least once, examples listed as agonists in NFkB and MMTV assays, read-out: potency pIC50 in the NFKB assay (converted).

Read-outs that look alike come from different tables or passages of the source.

For `CCN(CC(O)(CNC(=O)c1cnn(-c2ccc(F)cc2)c1N)C(F)(F)F)C(=O)c1cccc2cccnc12` (single isomer, unassigned) [Example 8 Enantiomer 1, N-{2-[({[5-amino-1-(4-fluorophenyl)-1H-pyrazol-4-yl]carbonyl}amino)methyl]-3,3,3-trifluoro-2-hydroxypropyl}-N-ethyl-8-quinolinecarboxamide], the EC50 at Progesterone Receptor is more than 1000 nM. The Emax on GR [1] (A549 SPAP cells) and at GR [2] was not below 40% each time. For the same compound, the IC50 at GR [1] (setting [3]) is less than 1000 nM; at GR [1] (setting [4]) it was less than 316 nM; on glucocorticoid receptor, less than 1000 nM.

On to `CN(CC(O)(CNC(=O)c1cnn(-c2ccc(F)cc2)c1N)C(F)(F)F)C(=O)c1ccccc1Cl` (racemic) [Example 7 (racemic), 5-amino-N-(2-{[[(2-chlorophenyl)car-bonyl](methyl)amino]methyl}-3,3,3-trifluoro-2-hydroxypropyl)-1-(4-fluorophenyl)-1H-pyrazole-4-carboxamide], for which the EC50 on Progesterone Receptor is more than 1000 nM. Besides, the Emax on GR [1] (A549 SPAP cells) and on GR [2] was not below 40% in each case. In addition, the IC50 at GR [1] (setting [3]) was less than 1000 nM; at GR [1] (setting [4]), less than 316 nM; at glucocorticoid receptor it was less than 1000 nM.

Consider `CCN(CC(O)(CNC(=O)c1cnn(-c2ccc(F)cc2)c1N)C(F)(F)F)C(=O)c1ccccc1C(F)(F)F` (single isomer, unassigned) [Example 9 Enantiomer 1, 5-amino-N-{2-[(ethyl{[2-(trifluoromethyl)phenyl]carbonyl}amino)methyl]-3,3,3-trifluoro-2-hydroxypropyl}-1-(4-fluorophenyl)-1H-pyrazole-4-carboxamide], for which the EC50 on Progesterone Receptor was more than 1000 nM. The Emax at GR [1] (A549 SPAP cells) and at GR [2] was not below 40% in each case. For the same compound, the IC50 at GR [1] (setting [3]) is less than 1000 nM; at GR [1] (setting [4]), less than 316 nM; at glucocorticoid receptor, less than 1000 nM.

Turning to `CN(CC(O)(CNC(=O)c1cnn(-c2ccc(F)cc2)c1N)C(F)(F)F)C(=O)c1ccccc1Cl` (single isomer, unassigned) [Example 7 Enantiomer 1, 5-amino-N-(2-{[[(2-chlorophenyl)car-bonyl](methyl)amino]methyl}-3,3,3-trifluoro-2-hydroxypropyl)-1-(4-fluorophenyl)-1H-pyrazole-4-carboxamide], the EC50 at Progesterone Receptor is more than 1000 nM. Also, the Emax on GR [1] (A549 SPAP cells) and on GR [2] was not below 40% each time. The IC50 on GR [1] (setting [3]) is less than 1000 nM; on GR [1] (setting [4]), less than 316 nM; on glucocorticoid receptor it was less than 1000 nM.

Turning to `CCN(CC(O)(CNC(=O)c1cnn(-c2ccc(F)cc2)c1N)C(F)(F)F)C(=O)c1cccc(F)c1F` (single isomer, unassigned) [Example 5 Enantiomer 1, 5-Amino-N-(2-{[[(2,3-difluorophenyl)carbonyl](ethyl)amino]methyl}-3,3,3-trifluoro-2-hydroxypropyl)-1-(4-fluorophenyl)-1H-pyrazole-4-carboxamide], on Progesterone Receptor, the EC50 is more than 1000 nM. Also, the Emax on GR [1] (A549 SPAP cells) and on GR [2] was not below 40% in each case. Also, the figures for the IC50 at GR [1] (setting [3]), on GR [1] (setting [4]) and at glucocorticoid receptor were less than 1000 nM, less than 316 nM and less than 1000 nM, respectively.

As for `CCN(CC(O)(CNC(=O)c1cnn(-c2ccccc2)c1N)C(F)(F)F)C(=O)c1ccccc1Cl` (racemic) [Example 46 (racemic), 5-amino-N-(2-{[[(2-chlorophenyl)car-bonyl](ethyl)amino]methyl}-3,3,3-trifluoro-2-hydroxypropyl)-1-phenyl-1H-pyrazole-4-carboxamide], the EC50 on Progesterone Receptor was more than 1000 nM. Besides, the Emax at GR [1] (A549 SPAP cells) and at GR [2] was not below 40% throughout. In addition, the IC50 at GR [1] (setting [3]) was less than 1000 nM; at GR [1] (setting [4]), less than 316 nM; at glucocorticoid receptor, less than 1000 nM.

Turning to `CCN(CC(O)(CNC(=O)c1cnn(-c2ccc(F)cc2)c1N)C(F)(F)F)C(=O)c1ccccc1C(F)(F)F` (racemic) [Example 9 (racemic), 5-amino-N-{2-[(ethyl{[2-(trifluoromethyl)phenyl]carbonyl}amino)methyl]-3,3,3-trifluoro-2-hydroxypropyl}-1-(4-fluorophenyl)-1H-pyrazole-4-carboxamide], the EC50 on Progesterone Receptor is more than 1000 nM. The Emax on GR [1] (A549 SPAP cells) and at GR [2] was not below 40% in each case. In addition, the IC50 at GR [1] (setting [3]) is less than 1000 nM; at GR [1] (setting [4]), less than 316 nM; on glucocorticoid receptor it was less than 1000 nM.

`CCN(CC(O)(CNC(=O)c1cnn(-c2ccc(F)cc2)c1N)C(F)(F)F)C(=O)c1ccccc1F` (racemic) [Example 4 (racemic), 5-Amino-N-[2-({ethyl[(2-fluorophenyl)carbonyl]amino}methyl)-3,3,3-trifluoro-2-hydroxypropyl]-1-(4-fluorophenyl)-1H-pyrazole-4-carboxamide]: on Progesterone Receptor, the EC50 was more than 1000 nM. For the same compound, the Emax on GR [1] (A549 SPAP cells) and on GR [2] was not below 40% each time. Also, the IC50 was less than 1000 nM at GR [1] (setting [3]), less than 316 nM on GR [1] (setting [4]) and less than 1000 nM on glucocorticoid receptor.

For `CCN(CC(O)(CNC(=O)c1cnn(-c2ccccc2)c1N)C(F)(F)F)C(=O)c1ccccc1F` (single isomer, unassigned) [Example 45 Enantiomer 1, 5-amino-N-[2-({ethyl[(2-fluorophenyl)car-bonyl]amino}methyl)-3,3,3-trifluoro-2-hydroxypropyl]-1-phenyl-1H-pyrazole-4-carboxamide], at Progesterone Receptor, the EC50 is more than 1000 nM. For the same compound, the Emax on GR [1] (A549 SPAP cells) and on GR [2] was not below 40% each time. Further, the IC50 was less than 1000 nM on GR [1] (setting [3]), less than 316 nM on GR [1] (setting [4]) and less than 1000 nM at glucocorticoid receptor.
